Measurements published in patent publication US11673910B2, “Macrolides with modified desosamine sugars and uses thereof” (Zikani Therapeutics, Inc., priority 2017, dated 2023).
Converted amounts (≈) assume the structure as drawn.

Legend:
Assay type in all cases: cell-based
[1] = system: E. coli strain MP-4; assay: Broth dilution MIC determination (CLSI) against E. coli strain MP-4; details: Escherichia coli, MP4
Description: (§1) Minimum inhibitory concentrations (MICs) for macrolides described herein were determined for E. coli strain MP-4, K. pneumoniae strain MP-548, P. aeruginosa strain MP-3, A. baumannii strain MP-15, and S. aureus strain MP-12 using similar test procedures as published in US Pat. Pub. No. 2017/0305953. MIC data is represented as “+++” for values less than or equal to 4 mg/L, “++” for values of greater than or equal to 8 mg/L and less than 32 mg/L, and “+” for values of 32 mg/L or greater. ND indicates no data for a particular compound. CLSI standard procedures for broth dilution MIC determination were used.

[2] = system: K. pneumoniae strain MP-548; assay: Broth dilution MIC determination (CLSI) against K. pneumoniae strain MP-548; details: Klebsiella pneumoniae, MP548
Description: as §1

[3] = system: P. aeruginosa strain MP-3; assay: Broth dilution MIC determination (CLSI) against P. aeruginosa strain MP-3; details: Pseudomonas aeruginosa, MP3
Description: as §1

[4] = system: A. baumannii strain MP-15; assay: Broth dilution MIC determination (CLSI) against A. baumannii strain MP-15; details: Acinetobacter baumannii, MP15
Description: as §1

[5] = system: S. aureus strain MP-12; assay: Broth dilution MIC determination (CLSI) against S. aureus strain MP-12; details: Staphylococcus aureus, MP12, strain MP-12
Description: as §1

MIC [1]	MIC [2]	MIC [3]	MIC [4]	MIC [5]	SMILES
≤ 4 µg/mL	≥ 32 µg/mL	≥ 32 µg/mL	≥ 32 µg/mL	≥ 32 µg/mL	CC[C@H]1OC(=O)C(C)C(=O)[C@H](C)[C@@H](O[C@@H]2OC(CNCc3ccc(OC)cc3)CC(N(C)C)C2O)[C@](C)(OC)C[C@@H](C)CN[C@H](C)[C@H]2NC(=O)O[C@@]21C (some centres unmarked) [Compound 42]
≤ 4 µg/mL	≥ 32 µg/mL	≥ 32 µg/mL	≥ 32 µg/mL	≥ 32 µg/mL	CC[C@H]1OC(=O)C(C)C(=O)[C@H](C)[C@@H](O[C@@H]2OC(CNCc3ccc(F)cn3)CC(N(C)C)C2O)[C@](C)(OC)C[C@@H](C)CN[C@H](C)[C@H]2NC(=O)O[C@@]21C (some centres unmarked) [Compound 38]
8 to 32 µg/mL (≈ 10.8 to 43.3 µM)	≥ 32 µg/mL	≥ 32 µg/mL	≥ 32 µg/mL	8 to 32 µg/mL (≈ 10.8 to 43.3 µM)	CC[C@H]1OC(=O)C(C)C(=O)[C@H](C)[C@@H](O[C@@H]2OC(CNc3ccc(Cl)cc3)CC(N(C)C)C2O)[C@](C)(OC)C[C@@H](C)CN[C@H](C)[C@H]2NC(=O)O[C@@]21C (some centres unmarked) [Compound 49]
≤ 4 µg/mL	8 to 32 µg/mL (≈ 11.5 to 45.9 µM)	≥ 32 µg/mL	8 to 32 µg/mL (≈ 11.5 to 45.9 µM)	8 to 32 µg/mL (≈ 11.5 to 45.9 µM)	CC[C@H]1OC(=O)C(C)C(=O)[C@H](C)[C@@H](OC2OC(CN(C)C3CC3)CC(N(C)C)C2O)[C@](C)(OC)C[C@@H](C)CN(C)[C@H](C)[C@H]2NC(=O)O[C@@]21C (some centres unmarked) [Compound 157, 3-Descladinosyl-3-oxo-6-O-methyl-11,12-dideoxy-12,11-(oxycarbonylimino)-6′-[N-(methyl)cyclopropylamino]Azithromycin]
≤ 4 µg/mL	8 to 32 µg/mL (≈ 11.7 to 46.7 µM)	≥ 32 µg/mL	≥ 32 µg/mL	≥ 32 µg/mL	CC[C@H]1OC(=O)C(C)C(=O)[C@H](C)[C@@H](OC2OC(CNC(C)(C)C)CC(N(C)C)C2O)[C@](C)(OC)C[C@@H](C)CN[C@H](C)[C@H]2NC(=O)O[C@@]21C (some centres unmarked) [Compound 110, 3-Descladinosyl-3-oxo-6-O-methyl-N9a-desmethyl-11,12-dideoxy-12,11-(oxycarbonylimino)-6′-tert-butylamino Azithromycin]
≤ 4 µg/mL	≥ 32 µg/mL	≥ 32 µg/mL	≥ 32 µg/mL	≥ 32 µg/mL	CC[C@H]1OC(=O)C(C)(C)C(=O)[C@H](C)[C@@H](O[C@@H]2O[C@H](CNC3CC3)CC(N(C)C)[C@H]2O)[C@](C)(OC)C[C@@H](C)CN[C@H](C)[C@H]2NC(=O)O[C@@]21C (some centres unmarked) [Compound 192, 2-Methyl-3-descladinosyl-3-oxo-6-O-methy 1-N9a-desmethyl-11,12-dideoxy-12,11-(oxycarbonylimino)-6′-cylcopropylamino Azithromycin]
8 to 32 µg/mL (≈ 10.8 to 43.2 µM)	≥ 32 µg/mL	≥ 32 µg/mL	≥ 32 µg/mL	≥ 32 µg/mL	CCCCCCCCNCC1CC(N(C)C)C(O)[C@H](O[C@@H]2[C@@H](C)C(=O)C(C)C(=O)O[C@H](CC)[C@@]3(C)OC(=O)N[C@@H]3[C@@H](C)NC[C@H](C)C[C@@]2(C)OC)O1 (some centres unmarked) [Compound 54]
≤ 4 µg/mL	8 to 32 µg/mL (≈ 11.4 to 45.5 µM)	≥ 32 µg/mL	8 to 32 µg/mL (≈ 11.4 to 45.5 µM)	≤ 4 µg/mL	CC[C@H]1OC(=O)C(C)C(=O)[C@H](C)[C@@H](O[C@@H]2O[C@H](CCc3ccccc3)CC(N(C)C)[C@H]2O)[C@](C)(OC)C[C@@H](C)CN[C@H](C)[C@H]2NC(=O)O[C@@]21C (some centres unmarked) [Compound 186, 3-Descladinosyl-3-oxo-6-O-methyl-N9a-desmethyl-11,12-dideoxy-12,11-(oxycarbonylimino)-6′-benzyl Azithromycin]

SMILES	MIC [1]	MIC [2]	MIC [3]	MIC [4]	MIC [5]
CC[C@H]1OC(=O)[C@]2(C)CCO[C@](C)(C[C@@H](C)CN[C@H](C)[C@H]3NC(=O)O[C@@]31C)[C@H](O[C@@H]1O[C@H](CNCC3CC3)C[C@H](N(C)C)[C@H]1O)[C@@H](C)C2=O [Compound 196]	8 to 32 µg/mL (≈ 11.5 to 46 µM)	≥ 32 µg/mL	≥ 32 µg/mL	≥ 32 µg/mL	≥ 32 µg/mL
CC[C@H]1OC(=O)[C@@]2(C)CCOC(C)(C[C@@H](C)CN[C@H](C)[C@H]3NC(=O)O[C@@]31C)[C@H](O[C@@H]1OC(C)CC(N(C)C)C1O)[C@@H](C)C2=O (some centres unmarked) [Compound 219]	≤ 4 µg/mL	≤ 4 µg/mL	≥ 32 µg/mL	8 to 32 µg/mL (≈ 12.8 to 51.1 µM)	≤ 4 µg/mL
